Test results reported in patent publication US4504464A, “2,3-Dialkoxypropyl glyceryl ether and its preparation process as well as cosmetic composition containing same” (Kao Soap Co., Ltd., priority 1981, dated 1985).

Legend:
Viscosity (27° C.) = format: physicochemical
Method: (§1) Physical and chemical properties of the compound prepared in Example 1, which compound relates to the present invention, and an example of its application for cosmetic compositions will be described below.
(§2) Viscosity Water-solubility (25° )

[1] = Water-solubility (25° C.); format: physicochemical; settings: for Water-solubility (25° C.) 10%: 10% content of the diglycerin dialkyl ether; for Water-solubility (25° C.) 50%: 50% content of the diglycerin dialkyl ether
Method: as §1, §2
* Content (%) of the diglycerin dialkyl ether according to this invention
These figures will have the same significance in subsequent examples.

Molecule | Viscosity (27° C.) (Viscosity (27° C.)) [cp] | Water-solubility (25° C.) 10% [1] | Water-solubility (25° C.) 50% [1]
2-butoxy-3-isostearoxypropyl glyceryl ether [Example 4] | 240 |  | 
2-methoxy-3-isostearoxypropyl glyceryl ether [Example 3] | 382 |  | 
2-octoxy-3-isostearoxypropyl glyceryl ether [Example 5] | 280 | Undissolved | Undissolved
CCCCCCCCOCC(COCC(O)CO)OC (stereo not shown) [Example 1, 2-methoxy-3-octoxypropyl glyceryl ether] | 423 | Dissolved | Dissolved
CCCCCCCCCCCCOCC(COCC(O)CO)OC (stereo not shown) [Example 2, 2-methoxy-3-dodecyloxypropyl glyceryl ether] | 504 | Dissolved | 
